Data reported in patent US9914730B2, “Azaquinazoline inhibitors of Atypical protein Kinase C” (Ignyta, Inc., priority 2012, dated 2018).

Target: T1, full-length human PKCι (Homo sapiens, UniProt P41743)
T1 construct: Recombinant, full-length human PKCι expressed in Sf21 insect cells is also commercially available; purchased; host or cells: Sf21 insect cells
T1 sequence (P41743 1-596): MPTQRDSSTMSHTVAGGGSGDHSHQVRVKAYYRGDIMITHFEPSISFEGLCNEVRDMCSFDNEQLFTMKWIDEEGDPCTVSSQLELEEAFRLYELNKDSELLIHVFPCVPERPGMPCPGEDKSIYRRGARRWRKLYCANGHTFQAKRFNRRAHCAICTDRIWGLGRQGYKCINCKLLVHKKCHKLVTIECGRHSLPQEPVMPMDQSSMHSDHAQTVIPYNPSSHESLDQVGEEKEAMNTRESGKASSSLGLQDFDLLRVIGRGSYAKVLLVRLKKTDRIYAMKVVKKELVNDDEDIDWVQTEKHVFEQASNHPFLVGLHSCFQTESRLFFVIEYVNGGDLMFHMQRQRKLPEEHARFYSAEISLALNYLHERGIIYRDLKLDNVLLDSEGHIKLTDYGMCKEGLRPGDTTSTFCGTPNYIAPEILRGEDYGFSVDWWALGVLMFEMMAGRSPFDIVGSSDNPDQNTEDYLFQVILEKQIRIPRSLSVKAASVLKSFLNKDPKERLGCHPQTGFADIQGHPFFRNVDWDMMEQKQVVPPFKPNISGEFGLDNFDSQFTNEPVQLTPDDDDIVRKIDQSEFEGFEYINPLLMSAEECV
Assay: PKCι IC50 IMAP assay, full-length PKCι at 150 μM ATP
Type: biochemical
Settings: read-out: IC50 in IMAP assay against full length PKCi at 150 μM ATP
From the text: Assays are based on the ability of PKCι to phosphorylate a commercially available peptide substrate in vitro. The peptide substrate is FAM-PKCε pseudopeptide derived peptide, and comprises the amino acid sequence 5FAM-[…]-NH2. Recombinant, full-length human PKCι expressed in Sf21 insect cells is also commercially available. Recombinant, kinase-domain human PKCι is expressed and purified in-house.
The procedure below explains how dose response curves for inhibitors of PKCι are obtained. The screen described is for a 384 well format but the assay can be adapted to 1536 or other formats as required.
Compounds to be tested are dissolved in 100% DMSO. Compounds are diluted as required to give a final concentration of 4% DMSO (v/v) in the assay. 1 μl is plated into 384 well black low-binding flat bottomed assay plates which are used immediately. Dilutions and additions of compound to assay plates are carried out using Matrix WellMate® and Matrix PlateMate® Plus liquid handling systems.
On the day of the screen PKCι/substrate working solution, and ATP working solution, are prepared in buffer containing 20 mM tris-HCl pH7.5, 10 mM MgCl2, 0.01% Triton X100, 250 μM EGTA and 1 mM DTT. The final concentration of PKCι used varies depending on the batch of protein but is typically 15 pM. The final concentration of peptide substrate in the assay is 100 nM. ATP is used at a final concentration of 150 μM or 25 μM in the assays containing full-length or kinase-domain PKCι respectively, which corresponds to five times or equal to the KM^APP for ATP for each enzyme, respectively. The final buffer concentration in the assay is 18 mM tris-HCl pH7.5, 9 mM MgCl2, 0.009% Triton X100, 225 μM EGTA and 0.9 mM DTT. Relevant controls are included, namely no compound and no enzyme. 5 μl PKCι/substrate working solution at 30 pM and 200 nM, respectively, is added to the wells, followed by 4 μl ATP working solution at 375 μM or 62.5 μM for full-length or kinase-domain PKCι respectively, using a 16 channel Matrix pipette. The reaction is allowed to incubate for 60 minutes at room temperature, before the reaction is stopped and developed by the addition of 20 μl IMAP™ development reagent (Molecular Devices). IMAP development reagent consists of 0.25% (v/v) IMAP progressive binding reagent, 17% (v/v) IMAP progressive binding buffer A and 3% (v/v) IMAP progressive binding buffer B. The plates are then incubated for 2 hours at room temperature before being read using an appropriate plate reader, for example a Molecular Devices HT Analyst or a BMG Pherastar. Plates are read using a fluorescence polarisation protocol with excitation at 485 nm and emission at 530 nm, and dichroic mirror at 505 nm.
Percentage inhibition values are calculated from fluorescence polarisation values, using the no compound and no enzyme control values as 0% and 100% inhibition, respectively. IC50 determination is performed with ExcelFit software (IDBS) using curve fit 205. Z′ factors are determined for each plate tested and are all above 0.5.

| IC50 | SMILES |
| --- | --- |
| 100 to 1000 nM | N#C[C@H]1CN(c2nc(-c3ccnc(Nc4c(F)cccc4F)c3)nc3cncc(C4CC4)c23)CCN1 [Example 788, (R)-4-{5-Cyclopropyl-2-[2-(2,6-difluoro-phenylamino)-pyridin-4-yl]-pyrido[3,4-d]pyrimidin-4-yl}-piperazine-2-carbonitrile] |
| < 100 nM | COc1cncc2nc(-c3ccnc(Nc4ccc(N5CCN(C)CC5)nc4)c3)nc(N[C@@H]3CCNC3)c12 [Example 331, (5-Methoxy-2-{2-[6-(4-methyl-piperazin-1-yl)-pyridin-3-ylamino]-pyridin-4-yl}-pyrido[3,4-d]pyrimidin-4-yl)-(R)-pyrrolidin-3-yl-amine] |
| < 100 nM | c1cc(-c2nc(N3CCNCC3)c3c(C4CC4)cncc3n2)cc(NC23CC(C2)C3)n1 [Example 700, Bicyclo[1.1.1]pent-1-yl-[4-(5-cyclopropyl-4-piperazin-1-yl-pyrido[3,4-d]pyrimidin-2-yl)-pyridin-2-yl]-amine] |
| < 100 nM | FC(F)(F)c1ccnc(Nc2cc(-c3nc(N4CCNCC4)c4c(Cl)cncc4n3)ccn2)c1 [Example 259, [4-(5-Chloro-4-piperazin-1-yl-pyrido[3,4-d]pyrimidin-2-yl)-pyridin-2-yl]-(4-trifluoromethyl-pyridin-2-yl)-amine] |
| 100 to 1000 nM | c1cc2c(N[C@@H]3CCNC3)nc(-c3ccnc(Nc4cc(N5CCOCC5)ccn4)c3)nc2cn1 [Example 343, {2-[2-(4-Morpholin-4-yl-pyridin-2-ylamino)-pyridin-4-yl]-pyrido[3,4-d]pyrimidin-4-yl}-(R)-pyrrolidin-3-yl-amine] |
| 100 to 1000 nM | CS(=O)(=O)C[C@H]1CN(c2nc(-c3ccnc(NC(=O)C4CC4)c3)nc3cncc(C4CC4)c23)CCN1 [Example 773, Cyclopropanecar-boxylic acid {4-[5-cyclopropyl-4-((R)-3-methanesulfonyl-methyl-piperazin-1-yl)-pyrido[3,4-d]pyrimidin-2-yl]-pyridin-2-yl}-amide] |
| < 100 nM | CCP(=O)(CC)c1ccc(Nc2cc(-c3nc(N4CCNCC4)c4c(C5CC5)cncc4n3)ccn2)cc1 [Example 550, [4-(5-Cyclopropyl-4-piperazin-1-yl-pyrido[3,4-d]pyrimidin-2-yl)-pyridin-2-yl]-[4-(diethyl-phosphinoyl)-phenyl]-amine] |
| < 100 nM | COc1cncc2nc(-c3ccnc(Nc4ccc(N5CCOCC5)cc4F)c3)nc(N3CCNCC3)c12 [Example 418, (2-Fluoro-4-morpholin-4-yl-phenyl)-[4-(5-methoxy-4-piperazin-1-yl-pyrido[3,4-d]pyrimidin-2-yl)-pyridin-2-yl]-amine] |
| < 100 nM | COc1cncc2nc(-c3ccnc(Nc4cccc(C)c4F)c3)nc(N3CCNCC3)c12 [Example 451, (2-Fluoro-3-methyl-phenyl)-[4-(5-methoxy-4-piperazin-1-yl-pyrido[3,4-d]pyrimidin-2-yl)-pyridin-2-yl]-amine] |
| < 100 nM | c1cc(-c2nc(N3CCNCC3)c3c(C4CC4)cncc3n2)cc(N[C@H]2C[C@@H]3CC[C@H]2C3)n1 [Example 823, (1S,2S,4R)-Bicyclo[2.2.1]hept-2-yl-[4-(5-cyclopropyl-4-piperazin-1-yl-pyrido[3,4-d]pyrimidin-2-yl)-pyridin-2-yl]-amine] |
| < 100 nM | CC1(C)CN(c2nc(-c3ccnc4[nH]c(C(F)(F)F)cc34)nc3cncc(C4CC4)c23)CCN1 [Example 1251, 5-Cyclopropyl-4-(3,3-dimethyl-piperazin-1-yl)-2-(2-trifluoromethyl-1H-pyrrolo[2,3-b]pyridin-4-yl)-pyrido[3,4-d]pyrimidine] |
| 100 to 1000 nM | CCc1cc2c(-c3nc(N4CCNCC4)c4c(OC)cncc4n3)ccnc2[nH]1 [Example 1204, 2-(2-Ethyl-1H-pyrrolo[2,3-b]pyridin-4-yl)-5methoxy-4-piperazin-1-yl-pyrido[3,4-d]pyrimidine] |
| < 100 nM | c1cc(-c2nc(N3CCNCC3)c3c(C4CC4)cncc3n2)c2cc([C@@H]3C[C@H]4CC[C@@H]3O4)[nH]c2n1 (racemic) [Example 2121, (±)-exo-5-Cyclopropyl-2-[2-(7-oxa-bicyclo[2.2.1]hept-2-yl)-1H-pyrrolo[2,3-b]pyridin-4-yl]-4-piperazin-1-yl-pyrido[3,4-d]pyrimidine] |
| < 100 nM | c1cc(-c2nc(N3CCNCC3)c3c(C4CC4)cncc3n2)cc(N[C@@H]2C[C@H]3CC[C@@H]2O3)n1 (racemic) [Example 2093, (±)-exo-[4-(5-Cyclopropyl-4-piperazin-1-yl-pyrido[3,4-d]pyrimidin-2-yl)-pyridin-2-yl]--7-oxa-bicyclo[2.2.1]hept-2-yl-amine] |
| 100 to 1000 nM | C[C@H]1CN(c2nc(-c3ccnc(Nc4ccccc4)c3)nc3cncc(Cl)c23)CCN1 [Example 250, {4-[5-Chloro-4-((S)-3-methyl-piperazin-1-yl)-pyrido[3,4-d]pyrimidin-2-yl]-pyridin-2-yl}-phenyl-amine] |
| 10000 to 40000 nM | O[C@H]1CCN(c2nc(-c3ccncc3)nc3cnccc23)C1 [Example 35, (3S)-1-[2-(pyridin-4-yl)pyrido[3,4-d]-pyrimidin-4-yl]-pyrrolidin-3-ol] |
| < 100 nM | CCc1ccc(F)c(Nc2cc(-c3nc(N4CCNCC4)c4c(C5CC5)cncc4n3)ccn2)c1 [Example 715, [4-(5-Cyclopropyl-4-piperazin-1-yl-pyrido[3,4-d]pyrimidin-2-yl)-pyridin-2-yl]-(5-ethyl-2-fluoro-phenyl)-amine] |
| < 100 nM | Fc1cccn2nc(Nc3cc(-c4nc(N5CCNCC5)c5c(C6CC6)cncc5n4)ccn3)nc12 [Example 2032, [4-(5-Cyclopropyl-4-piperazin-1-yl-pyrido[3,4-d]pyrimidin-2-yl)-pyridin-2-yl]-(8-fluoro-[1,2,4]triazolo[1,5-a]pyridin-2-yl)-amine] |
| < 100 nM | COc1ccc(F)c(Nc2cc(-c3nc(N4CCNCC4)c4c(C5CC5)cncc4n3)ccn2)c1F [Example 566, [4-(5-Cyclopropyl-4-piperazin-1-yl-pyrido[3,4-d]pyrimidin-2-yl)-pyridin-2-yl]-(2,6-difluoro-3-methoxy-phenyl)-amine] |
| < 100 nM | Fc1cc(F)c(Nc2cc(-c3nc(NC4CCNCC4)c4c(C5CC5)cncc4n3)ccn2)nc1F [Example 2065, {5-Cyclopropyl-2-[2-(3,5,6-trifluoro-pyridin-2-ylamino)-pyridin-4-yl]-pyrido[3,4-d]pyrimidin-4-yl}-piperidin-4-yl-amine] |

| SMILES | IC50 |
| --- | --- |
| CN(c1nc(-c2ccnc(Nc3nc(F)cc(F)c3F)c2)nc2cncc(C3CC3)c12)C1CCNCC1 [Example 2019, {5-Cyclopropyl-2-[2-(3,4,6-trifluoro-pyridin-2-ylamino)-pyridin-4-yl]-pyrido[3,4-d]pyrimidin-4-yl}-methyl-piperidin-4-yl-amine] | < 100 nM |
| CC(C)N1CCC(N(C)c2nc(-c3ccnc(Nc4c(F)cccc4F)c3)nc3cncc(C4CC4)c23)CC1 [Example 2115, {5-Cyclopropyl-2-[2-(2,6-difluoro-phenylamino)-pyridin-4-yl]-pyrido[3,4-d]pyrimidin-4-yl}-(1-isopropyl-piperidin-4-yl)-methyl-amine] | < 100 nM |
